These results are taken from DBAASP.

Common to all, as to test: ≥ marks a high value that may be exact or a test limit, other limits are often not marked, values filed in µg/mL are converted to µM
The test system of test [1] is Fusarium oxysporum KCTC 16909.
Test [2] has as its system Candida tropicalis KCTC 7221.
The subject of test [3] is Candida krusei CCARM 14017.
The test system of test [4] is Fusarium verticillioides KCTC 6149.
For test [5], the system named is Trichosporon beigelii KCTC 7707.
Test [6] relates to Candida parapsilosis CCARM 14016.
Test [7] deals with Staphylococcus aureus MR.
Test [8] concerns Candida albicans.
The subject of test [9] is Pseudomonas aeruginosa ATCC 27853.
For test [10], the system named is Staphylococcus aureus ATCC 49476.
Test [11] relates to Staphylococcus aureus MW2.
The subject of test [12] is Enterococcus faecium E007.
The subject of test [13] is Acinetobacter baumannii ATCC 7978.
Test [14] concerns Staphylococcus aureus ATCC 29231.
Test [15] relates to Listeria innocua.
The test system of test [16] is Leuconostoc lactis.
For test [17], the system named is Micrococcus luteus.
In test [18] the test system is Pasteurella multocida.
For test [19], the system named is Escherichia coli.
Test [20] deals with Streptococcus uberis.
Test [21] deals with Staphylococcus aureus.
Test [22] concerns Bacillus cereus.
Test [23] deals with Staphylococcus epidermidis.
The test system of test [24] is Escherichia coli CVCC 1515.
Test [25] relates to Salmonella enterica subsp. enterica serovar Pullorum CVCC 533.
Test [26] deals with Listeria ivanovii ATCC 19119.
The test system of test [27] is Candida albicans CGMCC 2.2411.
Test [28] relates to Streptococcus suis CVCC 606.
Test [29] has as its system Escherichia coli CVCC 195.
In test [30] the test system is Bacillus subtilis ATCC 6633.
Test [31] relates to Salmonella enterica subsp. enterica serovar Pullorum CVCC 1809.
The subject of test [32] is Staphylococcus aureus ATCC 43300.
Test [33] relates to Salmonella enterica subsp. enterica serovar Typhimurium ATCC 14028.
Test [34] relates to Pseudomonas aeruginosa CICC 10419.
The test system of test [35] is Enterococcus faecalis CVCC 3936.

SMILES strings stand for the structures. In brackets after ≈: the same amount, converted by molar mass. Several values for one entry are separate records, joined by “and”; a condition that tells them apart may be missing. Identical values can stand only once. Where only a bound is given, the exact number is not on record here.

Take `CC[C@H](C)[C@H](NC(=O)[C@H](C)NC(=O)[C@H](CCC(=O)O)NC(=O)[C@H](Cc1cnc[nH]1)NC(=O)[C@H](C)NC(=O)CNC(=O)[C@H](CCC(N)=O)NC(=O)[C@H](Cc1ccccc1)NC(=O)[C@@H](NC(=O)[C@H](CCCCN)NC(=O)[C@H](CCCCN)NC(=O)[C@H](C)NC(=O)[C@H](C)NC(=O)[C@H](CC(N)=O)NC(=O)[C@H](CC(C)C)NC(=O)CN)C(C)C)C(=O)N[C@@H](CCCCN)C(=O)N[C@@H](CC(C)C)C(=O)N[C@H](C(=O)N[C@@H](CC(N)=O)C(=O)N[C@@H](CC(N)=O)C(=O)N[C@@H](Cc1cnc[nH]1)C(=O)N[C@H](C(=O)N[C@@H](CCC(N)=O)C(N)=O)C(C)C)[C@@H](C)CC` [GLNAAKKVFQGAHEAIKLINNHVQ]: the MIC in test [1] was 4 µM and 12 µM; in [2], 4 µM and 2 µM; in test [3], 8 µM (≈ 20.8 µg/mL); in test [4], not below 48 µM; in [5] it was 2 µM (≈ 5.2 µg/mL); in [6], not below 64 µM.
Turning to `CC[C@H](C)[C@H](NC(=O)[C@H](C)NC(=O)[C@H](CCCCN)NC(=O)CNC(=O)[C@H](C)NC(=O)[C@H](CO)NC(=O)[C@H](Cc1ccccc1)NC(=O)[C@H](CC(C)C)NC(=O)CNC(=O)CNC(=O)[C@@H](NC(=O)[C@@H](NC(=O)[C@H](Cc1cnc[nH]1)NC(=O)[C@H](Cc1cnc[nH]1)NC(=O)[C@H](C)NC(=O)[C@H](C)N)[C@@H](C)CC)[C@@H](C)CC)C(=O)N[C@@H](Cc1cnc[nH]1)C(=O)N[C@@H](CCCN=C(N)N)C(=O)N[C@@H](CC(C)C)C(=O)N[C@H](C(=O)N[C@@H](CCCN=C(N)N)C(=O)N[C@@H](CCCN=C(N)N)C(=O)N[C@@H](CCCN=C(N)N)C(=O)N[C@@H](CCCN=C(N)N)C(=O)N[C@@H](CCCN=C(N)N)C(=O)O)[C@@H](C)CC` [AAHHIIGGLFSAGKAIHRLIRRRRR], the MIC in test [7] was not below 179 µM; in test [8], 22.4 µM (≈ 64 µg/mL); in test [9] it was 89.4 µM (≈ 256 µg/mL); in test [10], not below 44.7 µM.
For `CC[C@H](C)[C@H](NC(=O)[C@H](CCCCN)NC(=O)[C@H](CCCCN)NC(=O)[C@@H](N)CC(C)C)C(=O)NCC(=O)N[C@@H](CCCCN)C(=O)N[C@@H](CCCCN)C(=O)N[C@H](C(=O)N[C@@H](Cc1c[nH]c2ccccc12)C(=O)N[C@@H](CCCN=C(N)N)C(=O)N[C@H](C(=O)NCC(=O)N[C@@H](Cc1c[nH]c2ccccc12)C(=O)N[C@@H](CC(N)=O)C(=O)N[C@H](C(=O)N[C@@H](CCCN=C(N)N)C(=O)O)[C@@H](C)O)C(C)C)[C@@H](C)CC` [LKKIGKKIWRVGWNTR], the MIC in test [11], in [12], in test [13] and in test [14] was not below 64.5 µM in each case.
On to `CC[C@H](C)[C@H](NC(=O)[C@H](CO)NC(=O)[C@H](CO)NC(=O)[C@H](CCSC)NC(=O)[C@H](CC(C)C)NC(=O)CN)C(=O)NCC(=O)N[C@@H](CCCCN)C(=O)N[C@@H](C)C(=O)N[C@@H](CC(C)C)C(=O)NCC(=O)NCC(=O)N[C@@H](CC(C)C)C(=O)N[C@H](C(=O)N[C@H](C(=O)N[C@@H](CC(=O)O)C(=O)N[C@H](C(=O)N[C@@H](CC(C)C)C(=O)N[C@@H](CCCCN)C(=O)N1CCC[C@H]1C(=O)N[C@@H](CCCCN)C(=O)N[C@H](C(=O)N1CCC[C@H]1C(=O)N[C@@H](C)C(=O)N[C@@H](CO)C(=O)O)[C@@H](C)O)C(C)C)C(C)C)[C@@H](C)CC` [GLMSSIGKALGGLIVDVLKPKTPAS], for which the minimum inhibitory concentration (MIC) in test [15] is not below 40.8 µM; in test [16], not below 40.8 µM; in [17] it was not below 40.8 µM; in test [18] it was not below 40.8 µM; in test [19] it was more than 40.8 µM; in test [20], 20.4 µM (≈ 50 µg/mL). Also, the MIC in test [21] is more than 40.8 µM; in [22] it was not below 40.8 µM; in test [23], not below 40.8 µM.
On to `CC(C)[C@H](N)C(=O)N[C@H]1CSSC[C@@H](C(=O)N[C@@H](Cc2cnc[nH]2)C(=O)N[C@@H](CCCN=C(N)N)C(=O)N[C@@H](CCCN=C(N)N)C(=O)N[C@@H](C)C(=O)N[C@@H](CC(N)=O)C(=O)N[C@@H](CC(N)=O)C(=O)NCC(=O)N[C@H](C(=O)N[C@@H](CCCN=C(N)N)C(=O)N[C@H](C(=O)O)C(C)C)C(C)C)NC(=O)[C@H](CC(N)=O)NC(=O)[C@H](Cc2c[nH]c3ccccc23)NC(=O)[C@H](C)NC(=O)[C@H](Cc2ccccc2)NC(=O)CNC(=O)[C@H](CCCN=C(N)N)NC(=O)[C@H](Cc2ccc(O)cc2)NC(=O)[C@H](C(C)C)NC1=O` [VCVYRGFAWNCHRRANNGVRV], for which the MIC in [24], in [25], in test [26], in [27], in [28] and in test [29] was 25.8 µM (≈ 63.9 µg/mL) each time. Further, the MIC in test [30] is 25.8 µM (≈ 63.9 µg/mL); in test [31], 25.8 µM (≈ 63.9 µg/mL); in test [32], more than 25.8 µM; in test [33], more than 25.8 µM; in test [34] it was 25.8 µM (≈ 63.9 µg/mL); in [35] it was 25.8 µM (≈ 63.9 µg/mL).

In general, MIC refers to the smallest concentration in the dilution series that meets the test's criterion for growth inhibition. A lower MIC goes with a more susceptible organism.
